The record followed here is publication PMC8451722, “Staphylococcus aureus Depends on Eap Proteins for Preventing Degradation of Its Phenol-Soluble Modulin Toxins by Neutrophil Serine Proteases” (Frontiers in Immunology, 2021).

Structures are written as SMILES.

Series [1] addresses T1, human neutrophil elastase (Homo sapiens, UniProt P08246).
T1 construct: purchased PanReac AppliChem
T1 sequence (P08246 30-267): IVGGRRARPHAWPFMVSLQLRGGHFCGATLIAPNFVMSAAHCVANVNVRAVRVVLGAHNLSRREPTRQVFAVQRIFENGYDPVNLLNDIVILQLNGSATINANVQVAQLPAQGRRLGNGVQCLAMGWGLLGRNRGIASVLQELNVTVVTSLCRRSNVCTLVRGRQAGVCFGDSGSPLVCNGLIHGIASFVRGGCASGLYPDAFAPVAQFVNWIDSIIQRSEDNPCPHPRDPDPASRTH
Kind of series: Prevention of NSP-mediated PSMα3 degradation by NSP inhibitors (western blot). Type of series: biochemical. As to conditions: 100µM PMSF, one hour at 37°C, text: pre-incubation of neutrophils, Supplementary Figure 1: digestion with NE. How it is done:
(§1) PSMα3 (1,3µg) was digested either with 0,15 unit’s NE, CG or PR3 for one hour at 37°C with or without addition of PMSF (100µM) or 2µg Eap, 4µgEapH1 or 4µg EapH2. For digestion of PSMα3 by neutrophils, 25µl PSMα3 (20µM) was incubated for one hour with or without 5x10^6 neutrophils in 100µl RPMI at 37°C, 5% CO2. After centrifugation 10µl of the supernatant was used for western Blot analysis. After denaturation of the samples for two minutes at 85°C and addition of Tricine Sample Buffer, samples were subjected to a 10-20%- Tricine SDS gradient gel (Thermo Fischer Scientific). Then, proteins were blotted to a nitrocellulose membrane and blocked overnight using blocking buffer. After washing PSM α3 was visualized using rabbit anti-PSMα3 serum (kindly provided by Michael Otto) at a concentration of 1:10000 (for one hour, 4°C, under agitation). After washing with wash buffer (Tris buffered saline, BioRad +0,05% Tween, Merck), the secondary antibody goat anti rabbit IgG (Dylight 800 conjugate (LI-COR #2557) was added (diluted 1:10000 in blocking buffer) and incubated for one hour at 4°C. Protein bands were detected with the Licor Odyssey CLx.

The target of the next series is T2, human FPR2/ALX (Homo sapiens, UniProt P25090).
T2 construct: expressed in transfected cells; host or cells: HL60
T2 sequence (P25090 1-351): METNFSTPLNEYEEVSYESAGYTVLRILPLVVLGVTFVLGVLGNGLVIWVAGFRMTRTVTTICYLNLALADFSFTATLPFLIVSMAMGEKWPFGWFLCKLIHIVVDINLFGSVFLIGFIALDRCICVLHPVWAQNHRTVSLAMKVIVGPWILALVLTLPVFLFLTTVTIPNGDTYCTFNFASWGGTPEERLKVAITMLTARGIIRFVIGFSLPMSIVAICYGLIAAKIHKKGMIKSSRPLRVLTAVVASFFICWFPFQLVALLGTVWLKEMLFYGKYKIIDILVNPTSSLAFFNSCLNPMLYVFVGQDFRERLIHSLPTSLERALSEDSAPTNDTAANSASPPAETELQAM
The experiment in a line: Calcium mobilization in HL60 FPR2 cells. The settings on record: calcium flux. The series is classed as cell-based. How it is done: Culture filtrates of different bacterial strains (USA300, USA300ΔeapΔeapHIΔeapHII::ermB, S. epidermidis RN1457) were incubated with different amounts of neutrophils to investigate the potential of neutrophils to inactivate their PSM activity. Therefore, 100µl of sterile filtered overnight culture were incubated with 100µl neutrophils in RPMI at the indicated concentrations for six or 24 hours as described in the figure legends. After centrifugation, supernatants were collected and frozen at -20° until they were further analyzed for their FPR2 activity, for truncated PSM fragments and their cytotoxicity.
HL60 cells stably transfected with human FPR2/ALX (HL60-FPR2) have been described recently ([23]). These cells were grown in RPMI medium (Biochrom) supplemented with 10% FCS (Sigma-Aldrich), 20 mM Hepes (Biochrom), penicillin (100 units/ml), streptomycin (100 µg/ml) (Gibco), 1 × Glutamax (Gibco) and in the presence of G418 (Biochrom) at a final concentration of 1 mg/ml. […] Calcium fluxes were analyzed by stimulating cells loaded with Fluo-3-AM (Molecular Probes) and monitoring fluorescence with a FACSCalibur or a FACS Fortessa flow cytometer (BD Biosciences) as described recently ([23]).

The test system of the next series is human neutrophils. Kind of series: CD11b expression on neutrophils. The series is classed as cell-based. The settings on record: USA300 culture filtrate 0,36% in RPMI, treated 24 hours with neutrophils +/- PMSF; neutrophils stimulated 60 min 37°C; flow cytometry. The procedure: Sterile filtered culture filtrates of S. aureus USA300 (0,36% in RPMI) or TSB were incubated for 24 hours either with or without addition of the NSP inhibitor PMSF and neutrophils. Activation of human neutrophils was determined by measuring surface expression of CD11b. Neutrophils were incubated with the treated culture filtrates at 37°C with rotation for 60 min as described elsewhere ([24]). Cells were stained with a PE-labeled antibody against CD11b (mAb 44; BD Biosciences) or isotype control antibody (BD Biosciences) as described previously. Then, neutrophils were analyzed on a FACS Fortessa cytometer (BD Biosciences)
(In general: Flow cytometry measures light scatter and fluorescence of single cells or particles in a stream.)

The next series deals with HL60 cells. Kind of series: Cytotoxicity assay (LDH release), HL60 cells. Type of series: cell-based, human. The settings on record: three independent experiments. How it is done:
100 μl of synthetic PSMs, protease degraded PSMs or filtered bacterial culture supernatants were added to wells of a 96-well round bottom culture plate containing 10^5 neutrophils in 100 μl and plates were incubated at 37°C for up to 3 h. At the desired times, the stimulation was stopped by centrifugation for 10 minutes at 300 x g at RT, and cell lysis was determined by measuring the release of lactate dehydrogenase (LDH) using the Cytotoxicity Detection Kit (Roche Applied Sciences), according to the manufacturer’s instructions. As control, 100 μl TSB was diluted in RPMI without phenol red, mixed with human neutrophils (10^6) and tested for its ability to cause cell lysis. As control, lysis of HL60 cells was tested in pure RPMI/TSB without phenol red.
(Release of lactate dehydrogenase indicates damage to the cell membrane.)

Series [2] addresses T1, human neutrophil elastase. The experiment in a line: Degradation of PSMα3 by NE (western blot). As to conditions: PSMα3 1,3µg, 0,15 units NE, one hour at 37°C, three independent experiments. The series is classed as in vitro ADME. How it is done:
(§2) The three different human serine proteases human NE, PR3, 0.01 U and CG, 0.01 U were investigated and their potential to inactivate PSMα3 was compared. […] 28 ng/ml NE (stock: 1.4 mg/ml) were incubated for one hour at 37°C in RPMI plus 0.05% HSA to inactivate 500 nM PSMα3 in a total volume of 120 μl (0.012 μl NE in 60 μl RPMI). To avoid further degradation of PSMα3, all stimulations were prepared freshly and analyzed in different assays on the same day.
as §1, with “Then, proteins were blotted to a nitrocellulose membrane and blocked overnight using blocking buffer. After washing PSM α3 was visualized using rabbit anti-PSMα3 serum (kindly provided by Michael Otto) at a concentration of 1:10000 (for one hour, 4°C, under agitation).” left out
(In general: Immunoblotting shows a protein as a band on a membrane.)

The target of series [3] is T3, human neutrophil cathepsin G (Homo sapiens, UniProt P08311).
T3 construct: purchased MyBioSource
T3 sequence (P08311 21-255): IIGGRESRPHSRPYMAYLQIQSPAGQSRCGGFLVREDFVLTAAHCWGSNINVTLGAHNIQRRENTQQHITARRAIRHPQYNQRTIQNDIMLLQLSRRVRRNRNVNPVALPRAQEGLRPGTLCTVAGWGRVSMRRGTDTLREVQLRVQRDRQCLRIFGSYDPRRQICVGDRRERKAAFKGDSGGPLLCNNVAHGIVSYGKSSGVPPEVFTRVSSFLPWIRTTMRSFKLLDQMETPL
The experiment in a line: Degradation of PSMα3 by CG (western blot). Type of series: in vitro ADME. As to conditions: PSMα3 1,3µg, 0,15 units CG, one hour at 37°C, three independent experiments. How it is done: as §2
as §1, with “Then, proteins were blotted to a nitrocellulose membrane and blocked overnight using blocking buffer. After washing PSM α3 was visualized using rabbit anti-PSMα3 serum (kindly provided by Michael Otto) at a concentration of 1:10000 (for one hour, 4°C, under agitation).” left out

The target of series [4] is T4, human neutrophil proteinase 3 (Homo sapiens, UniProt P24158).
T4 construct: purchased MyBioSource
T4 sequence (P24158 28-256): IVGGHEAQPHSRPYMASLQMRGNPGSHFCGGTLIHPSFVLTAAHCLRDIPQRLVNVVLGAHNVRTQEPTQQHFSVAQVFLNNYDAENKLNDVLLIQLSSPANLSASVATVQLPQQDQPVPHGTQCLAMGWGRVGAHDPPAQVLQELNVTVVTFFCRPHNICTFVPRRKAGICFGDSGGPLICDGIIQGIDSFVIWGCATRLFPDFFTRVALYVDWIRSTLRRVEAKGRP
The experiment in a line: Degradation of PSMα3 by PR3 (western blot). The settings on record: PSMα3 1,3µg, 0,15 units PR3, one hour at 37°C, three independent experiments. The series is classed as in vitro ADME. How it is done:
as §2
as §1, with “Then, proteins were blotted to a nitrocellulose membrane and blocked overnight using blocking buffer. After washing PSM α3 was visualized using rabbit anti-PSMα3 serum (kindly provided by Michael Otto) at a concentration of 1:10000 (for one hour, 4°C, under agitation).” left out

On to `O=S(=O)(F)Cc1ccccc1` [PMSF, Phenylmethylsulfonyl fluoride], for which the “effect of NSP inhibitor PMSF on degradation of PSMα3” value in series [1] is on record as “prevents degradation of PSMα3”. The “PSM-mediated FPR2 activation by culture filtrates of PSM producing S. aureus in the simultaneous presence of neutrophils and inhibitor” value on human FPR2/ALX (HL60-FPR2 cells) was “rescued PSM-mediated FPR2 activation”. Further, the “PSMα3-mediated activation of FPR2 in HL60-FPR2 cells after neutrophil treatment with PMSF pre-incubation” value at human FPR2/ALX (three independent experiments) is “maintained the activation of FPR2”. The “CD11b surface expression on neutrophils incubated with culture filtrates of a PSM-producing S. aureus strain in the presence of inhibitor” value with human neutrophils was “upregulation of CD11b”.
Consider `CSCC[C@H](NC=O)C(=O)N[C@@H](CCC(=O)O)C(=O)N[C@@H](Cc1ccccc1)C(=O)N[C@H](C(=O)N[C@@H](C)C(=O)N[C@@H](CCCCN)C(=O)N[C@@H](CC(C)C)C(=O)N[C@@H](Cc1ccccc1)C(=O)N[C@@H](CCCCN)C(=O)N[C@@H](Cc1ccccc1)C(=O)N[C@@H](Cc1ccccc1)C(=O)N[C@@H](CCCCN)C(=O)N[C@@H](CC(=O)O)C(=O)N[C@@H](CC(C)C)C(=O)N[C@@H](CC(C)C)C(=O)NCC(=O)N[C@@H](CCCCN)C(=O)N[C@@H](Cc1ccccc1)C(=O)N[C@@H](CC(C)C)C(=O)NCC(=O)N[C@@H](CC(N)=O)C(=O)N[C@@H](CC(N)=O)C(=O)O)C(C)C` [PSMα3], for which the “cytotoxicity of PSMα3 toward HL60 cells after treatment with NE, CG and PR3” value in the series with HL60 cells is “abolished”. The “degradation of PSMα3 upon incubation with NE” value in series [2] was “readily degraded”. Moreover, in series [3], the “degradation of PSMα3 upon incubation with CG” value was “readily degraded”. The “degradation of PSMα3 upon incubation with PR3” value in series [4] is “readily degraded”.
